Tests used:
[1] = molecular target: T1, 5-hydroxytryptamine receptor 1A (Rattus norvegicus, UniProt P19327); assay: Binding affinity towards rat 5-hydroxytryptamine 1A receptor using [3H]8-OH-DPAT radioligand.
T1 sequence (P19327 whole entry): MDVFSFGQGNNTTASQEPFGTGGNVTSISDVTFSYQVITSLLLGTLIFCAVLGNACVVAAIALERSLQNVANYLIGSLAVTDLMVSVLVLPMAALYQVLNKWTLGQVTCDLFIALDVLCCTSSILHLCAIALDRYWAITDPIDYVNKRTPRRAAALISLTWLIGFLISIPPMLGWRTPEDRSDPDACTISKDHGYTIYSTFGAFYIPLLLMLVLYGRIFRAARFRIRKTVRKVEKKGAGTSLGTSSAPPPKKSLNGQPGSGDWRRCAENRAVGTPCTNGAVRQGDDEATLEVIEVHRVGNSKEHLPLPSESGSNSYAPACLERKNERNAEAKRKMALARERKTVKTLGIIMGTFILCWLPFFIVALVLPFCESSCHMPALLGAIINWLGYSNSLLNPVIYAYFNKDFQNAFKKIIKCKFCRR

[2] = molecular target: 5-hydroxytryptamine receptor 2A (Rattus norvegicus, UniProt P14842); assay: Compound was evaluated for the binding affinity towards 5-hydroxytryptamine 2A receptor using [3H]ketanserin radioligand.
[3] = molecular target: T2, Adrenergic receptor alpha-1 (Rattus norvegicus, UniProt P15823+P23944+P43140); assay: Binding affinity towards alpha-1 adrenergic receptor using [3H]prazosin radioligand.; type: protein assay
T2 sequence (P15823 whole entry): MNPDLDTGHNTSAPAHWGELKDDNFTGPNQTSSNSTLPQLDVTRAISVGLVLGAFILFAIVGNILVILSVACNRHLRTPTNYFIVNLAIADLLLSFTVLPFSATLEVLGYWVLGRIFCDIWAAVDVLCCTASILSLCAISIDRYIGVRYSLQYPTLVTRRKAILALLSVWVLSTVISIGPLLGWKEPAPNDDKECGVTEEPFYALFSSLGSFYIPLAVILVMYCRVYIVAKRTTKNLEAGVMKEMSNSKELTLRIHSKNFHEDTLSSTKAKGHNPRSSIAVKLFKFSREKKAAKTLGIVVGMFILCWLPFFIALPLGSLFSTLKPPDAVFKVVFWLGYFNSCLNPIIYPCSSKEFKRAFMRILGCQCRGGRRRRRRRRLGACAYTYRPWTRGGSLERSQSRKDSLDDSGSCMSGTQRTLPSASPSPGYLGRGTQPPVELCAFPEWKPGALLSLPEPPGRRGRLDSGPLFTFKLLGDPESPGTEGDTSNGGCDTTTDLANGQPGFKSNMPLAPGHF
T2 sequence (P23944 whole entry): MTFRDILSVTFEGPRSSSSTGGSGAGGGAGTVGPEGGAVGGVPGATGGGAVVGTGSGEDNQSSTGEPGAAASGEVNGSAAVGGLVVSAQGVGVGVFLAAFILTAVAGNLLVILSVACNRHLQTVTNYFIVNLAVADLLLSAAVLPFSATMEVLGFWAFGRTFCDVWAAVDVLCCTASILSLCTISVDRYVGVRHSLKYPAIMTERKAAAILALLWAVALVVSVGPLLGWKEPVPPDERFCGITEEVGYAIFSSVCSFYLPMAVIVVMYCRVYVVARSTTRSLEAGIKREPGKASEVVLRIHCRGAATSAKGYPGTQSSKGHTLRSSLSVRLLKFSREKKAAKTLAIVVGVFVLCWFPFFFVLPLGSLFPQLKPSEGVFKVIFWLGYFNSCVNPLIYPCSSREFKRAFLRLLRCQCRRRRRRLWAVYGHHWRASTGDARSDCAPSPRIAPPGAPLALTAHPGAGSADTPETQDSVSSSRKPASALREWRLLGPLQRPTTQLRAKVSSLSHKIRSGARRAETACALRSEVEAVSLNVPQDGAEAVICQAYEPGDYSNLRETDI
T2 sequence (P43140 whole entry): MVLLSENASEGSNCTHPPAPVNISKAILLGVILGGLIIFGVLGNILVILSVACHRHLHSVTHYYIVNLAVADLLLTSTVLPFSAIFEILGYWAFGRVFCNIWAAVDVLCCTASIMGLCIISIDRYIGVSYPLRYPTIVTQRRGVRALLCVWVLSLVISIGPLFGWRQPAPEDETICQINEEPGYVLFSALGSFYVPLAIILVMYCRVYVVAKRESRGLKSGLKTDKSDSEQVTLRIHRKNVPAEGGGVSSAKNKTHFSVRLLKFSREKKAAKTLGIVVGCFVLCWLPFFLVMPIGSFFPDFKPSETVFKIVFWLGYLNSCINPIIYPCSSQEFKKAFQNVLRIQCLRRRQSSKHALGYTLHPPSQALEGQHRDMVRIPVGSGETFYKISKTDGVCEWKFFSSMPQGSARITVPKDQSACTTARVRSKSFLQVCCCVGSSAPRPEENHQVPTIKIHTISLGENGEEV

[4] = molecular target: D(2) dopamine receptor (Rattus norvegicus, UniProt P61169); assay: Binding affinity towards dopamine receptor D2 using [3H]-raclopride radioligand.
[5] = test system: Mus musculus; assay: Effect on rectal temperature in mice at dose of 0.5 mg/kg sc.; type: functional
[6] = test system: Mus musculus; assay: Effect on rectal temperature in mice at dose of 10 mg/kg po.; type: functional
[7] = test system: Mus musculus; assay: Effect on rectal temperature in mice at dose of 10 mg/kg sc.; type: functional
[8] = test system: Mus musculus; assay: Effect on rectal temperature in mice at dose of 2.5 mg/kg sc.; type: functional
[9] = test system: Mus musculus; assay: Effect on rectal temperature in mice at dose of 20 mg/kg po; type: functional
[10] = test system: Mus musculus; assay: Effect on rectal temperature in mice at dose of 20 mg/kg sc.; type: functional
[11] = test system: Mus musculus; assay: Effect on rectal temperature in mice at dose of 30 mg/kg po; type: functional
[12] = test system: Mus musculus; assay: Effect on rectal temperature in mice at dose of 40 mg/kg po; type: functional
[13] = test system: Mus musculus; assay: Effect on rectal temperature in mice at dose of 5 mg/kg sc.; type: functional
[14] = species: Mus musculus; assay: Effect in the social interaction behavioral test in mice; type: functional

Sequence of D(2) dopamine receptor (P61169 whole entry): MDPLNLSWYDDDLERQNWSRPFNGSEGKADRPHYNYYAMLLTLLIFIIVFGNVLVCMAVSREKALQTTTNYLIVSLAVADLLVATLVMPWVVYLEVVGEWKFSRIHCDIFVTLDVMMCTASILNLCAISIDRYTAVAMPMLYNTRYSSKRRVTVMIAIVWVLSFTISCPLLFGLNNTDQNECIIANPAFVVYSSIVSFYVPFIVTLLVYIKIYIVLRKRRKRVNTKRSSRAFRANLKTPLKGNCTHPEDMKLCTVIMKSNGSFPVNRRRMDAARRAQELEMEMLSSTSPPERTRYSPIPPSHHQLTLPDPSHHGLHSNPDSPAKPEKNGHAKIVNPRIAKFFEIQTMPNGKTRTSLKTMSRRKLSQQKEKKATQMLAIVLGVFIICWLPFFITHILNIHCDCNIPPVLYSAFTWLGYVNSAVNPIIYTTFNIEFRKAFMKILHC
Sequence of 5-hydroxytryptamine receptor 2A (P14842 whole entry): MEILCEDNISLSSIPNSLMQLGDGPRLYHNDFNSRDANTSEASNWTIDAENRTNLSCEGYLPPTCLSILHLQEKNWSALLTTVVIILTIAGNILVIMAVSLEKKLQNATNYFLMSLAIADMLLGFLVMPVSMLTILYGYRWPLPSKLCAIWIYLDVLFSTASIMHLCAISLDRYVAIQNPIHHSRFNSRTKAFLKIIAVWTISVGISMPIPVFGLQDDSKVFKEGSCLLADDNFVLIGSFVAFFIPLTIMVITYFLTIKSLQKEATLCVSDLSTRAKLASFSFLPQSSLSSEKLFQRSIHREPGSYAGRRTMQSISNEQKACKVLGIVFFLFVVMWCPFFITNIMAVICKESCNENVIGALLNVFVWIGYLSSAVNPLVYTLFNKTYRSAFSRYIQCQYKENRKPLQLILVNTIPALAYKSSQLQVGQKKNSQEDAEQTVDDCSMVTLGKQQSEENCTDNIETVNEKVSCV

Ki [1]	Ki [2]	Ki [3]	Ki [4]	Structure (SMILES)	T decrease [5]	T decrease [6]	T decrease [7]	T decrease [8]	T decrease [9]	T decrease [10]	T decrease [11]	T decrease [12]	T decrease [13]	ED50 [14]	Max effect [14]
31.7 nM	> 1000 nM	> 1000 nM	> 10000 nM	COc1ccccc1N1CCN(CN2C(=O)C3CCCCN3C2=O)CC1 (stereo not given)	0.37 °C	-0.3 °C	-1.46 °C	0.06 °C	0.22 °C	-1.56 °C	-0.28 °C	-0.85 °C	-0.78 °C	3.58 mg/kg	130.8 s
9.9 nM	–	72.4 nM	90.6 nM	O=C1C2CCCCN2C(=O)N1CCCCN1CCN(c2cccc(C(F)(F)F)c2)CC1 (stereo not given)	-0.58 °C	0.07 °C	-1.55 °C	-0.77 °C	-0.55 °C	-2.73 °C	-1.23 °C	-1 °C	-0.92 °C	1.25 mg/kg	56.5 s
–	–	–	–	CCCN(CCC)C1CCc2cccc(O)c2C1 (stereo not given) [8-OH-DPAT]	-0.9 °C	–	-2.26 °C	-1.7 °C	–	–	–	–	-1.66 °C	0.58 mg/kg	132.2 s

From ChEMBL document CHEMBL1129734, “Synthesis and structure-activity relationships of a new model of arylpiperazines. 1. 2-[[4-(o-methoxyphenyl)piperazin-1-yl]methyl]-1, 3-dioxoperhydroimidazo[1,5-alpha]pyridine: a selective 5-HT1A receptor agonist” (J Med Chem, 1996)
